Data: the supplement of paper PMC10627819

Legend:
S. pneumoniae D39V [1] = experiment: fitness (endpoint OD595 vs no drug) (fraction); higher = more growth
Outline: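 Fitness expresses the optical density reached at the stationary-phase transition as a fraction of the robust mean of no-drug control wells. It is capped at 1. Measurements were OD595 every 30 min for 14 h at 37 °C after inoculation of 384-well plates at OD595 0.01 (30 µl, or 55 µl for S. pneumoniae), minus the first reading.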

S. aureus Newman = experiment: Bliss interaction score (quartile over a dose matrix) (fitness difference); higher = more antagonism (negative = synergy)
Outline: (§1)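 Quartiles summarise the Bliss score over technical, biological and donor/recipient replicates, where the score is observed minus expected fitness under a product model. Expected fitness uses single-drug values inferred from combination data. Fitness is OD595 at entry into stationary phase over the plate's robust no-drug mean, capped at 1.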

S. pneumoniae D39V [2] = experiment: as above
Outline: as §1

B. subtilis 168 = experiment: as above
Outline: as §1

S. aureus DSM 20231 = experiment: as above
Outline: as §1
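Throughout, for Bliss interaction score (quartile over a dose matrix): first quartile when negative (synergy) and third quartile when positive (antagonism).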

O=C1CN(/N=C/c2ccc([N+](=O)[O-])o2)C(=O)N1 [Nitrofurantoin] + COc1ccc(C[C@H](N)C(=O)N[C@H]2[C@@H](O)[C@H](n3cnc4c(N(C)C)ncnc43)O[C@@H]2CO)cc1 [Puromycin]
fitness, S. pneumoniae D39V [1]
Conditions	partner 1 µg/mL	partner 2 µg/mL	partner 4 µg/mL
first compound 1.285 µg/mL	0.989	0.966	0.808
first compound 2.57 µg/mL	0.947	0.901	0.742

fitness, S. pneumoniae D39V [1], one replicate
Conditions	first compound 2 µg/mL	first compound 4 µg/mL	first compound 5.14 µg/mL	first compound 8 µg/mL
partner 1 µg/mL	0.901	0.899	0.905	0.652
partner 2 µg/mL	0.821	0.915	0.88	0.711
partner 4 µg/mL	0.757	0.767	0.592	0.38

Conditions	Bliss interaction score
B. subtilis 168	0.1
S. aureus DSM 20231	0.0289
S. aureus Newman	0.098
S. pneumoniae D39V [2]	-0.135

O=C1CN(/N=C/c2ccc([N+](=O)[O-])o2)C(=O)N1 [Nitrofurantoin] + C[n+]1ccc(-c2cc[n+](C)cc2)cc1 [Paraquat]
fitness, S. pneumoniae D39V [1]
Conditions	partner 1.5 µg/mL	partner 3 µg/mL	partner 6 µg/mL
first compound 1.285 µg/mL	0.949	0.959	0.941
first compound 2.57 µg/mL	0.961	0.953	0.945

fitness, S. pneumoniae D39V [1], one replicate
Conditions	first compound 2 µg/mL	first compound 4 µg/mL	first compound 5.14 µg/mL	first compound 8 µg/mL
partner 1.5 µg/mL	0.988	0.983	0.909	0.859
partner 3 µg/mL	0.965	0.968	0.927	0.871
partner 6 µg/mL	0.981	≥ 1	0.894	0.909

Conditions	Bliss interaction score
B. subtilis 168	0.0514
S. aureus DSM 20231	0.0244
S. aureus Newman	0.0529
S. pneumoniae D39V [2]	0.0462

O=C1CN(/N=C/c2ccc([N+](=O)[O-])o2)C(=O)N1 [Nitrofurantoin] + Cc1cc(NS(=O)(=O)c2ccc(N)cc2)no1 [Sulfamethoxazol]
fitness, S. pneumoniae D39V [1]
Conditions	partner 1 µg/mL	partner 2 µg/mL	partner 4 µg/mL
first compound 1.285 µg/mL	0.952	0.957	0.91
first compound 2.57 µg/mL	0.942	0.948	0.944

fitness, S. pneumoniae D39V [1], one replicate
Conditions	first compound 2 µg/mL	first compound 4 µg/mL	first compound 5.14 µg/mL	first compound 8 µg/mL
partner 1 µg/mL	0.937	0.944	0.92	0.805
partner 2 µg/mL	0.929	0.934	0.929	0.833
partner 4 µg/mL	0.842	0.859	0.927	0.768

Conditions	Bliss interaction score
B. subtilis 168	0.0955
S. aureus DSM 20231	-0.0311
S. aureus Newman	0.0591
S. pneumoniae D39V [2]	0.049

O=C1CN(/N=C/c2ccc([N+](=O)[O-])o2)C(=O)N1 [Nitrofurantoin] + Cc1onc(-c2ccccc2)c1C(=O)N[C@@H]1C(=O)N2[C@@H]1SC(C)(C)[C@@H]2C(=O)O [Oxacillin]
fitness, S. pneumoniae D39V [1]
Conditions	first compound 1.285 µg/mL	first compound 2 µg/mL	first compound 2.57 µg/mL	first compound 4 µg/mL	first compound 8 µg/mL
partner 0.01 µg/mL	0.955	0.928	0.958	0.932	0.802
partner 0.02 µg/mL	0.959	0.873	0.944	0.864	0.798
partner 0.04 µg/mL	0.761	0.475	0.754	0.531	0.53

S. pneumoniae D39V [1], first compound 5.14 µg/mL, one replicate
Conditions	fitness
partner 0.01 µg/mL	0.955
partner 0.02 µg/mL	0.967
partner 0.04 µg/mL	0.795

Conditions	Bliss interaction score
B. subtilis 168	0.0329
S. aureus DSM 20231	-0.0421
S. aureus Newman	0.0474
S. pneumoniae D39V [2]	0.162

O=C1CN(/N=C/c2ccc([N+](=O)[O-])o2)C(=O)N1 [Nitrofurantoin] + Cn1nnc(-c2ccc(-c3ccc(N4C[C@H](CO)OC4=O)cc3F)cn2)n1 [Tedizolid]
fitness, S. pneumoniae D39V [1]
Conditions	first compound 1.285 µg/mL	first compound 2 µg/mL	first compound 2.57 µg/mL	first compound 4 µg/mL	first compound 8 µg/mL
partner 0.03125 µg/mL	–	0.948	–	0.957	0.951
partner 0.0625 µg/mL	–	0.893	–	0.915	0.859
partner 0.125 µg/mL	0.805	0.767	0.812	0.775	0.771
partner 0.25 µg/mL	0.724	–	0.676	–	–
partner 0.5 µg/mL	0.258	–	0.217	–	–

S. pneumoniae D39V [1], first compound 5.14 µg/mL, one replicate
Conditions	fitness
partner 0.125 µg/mL	0.791
partner 0.25 µg/mL	0.589
partner 0.5 µg/mL	0.18

Conditions	Bliss interaction score
B. subtilis 168	-0.0546
S. aureus DSM 20231	-0.0543
S. aureus Newman	-0.0562
S. pneumoniae D39V [2]	-0.141

C/C(=C\C(=O)OCCCCCCCCC(=O)O)C[C@@H]1OC[C@H](C[C@@H]2O[C@H]2[C@@H](C)[C@H](C)O)[C@@H](O)[C@H]1O [Pseudomonic acid] + CO[C@H]1/C=C/O[C@@]2(C)Oc3c(C)c(O)c4c(O)c(c(/C=N/N5CCN(C)CC5)c(O)c4c3C2=O)NC(=O)/C(C)=C\C=C\[C@H](C)[C@H](O)[C@@H](C)[C@@H](O)[C@@H](C)[C@H](OC(C)=O)[C@@H]1C [Rifampicin]
S. pneumoniae D39V [1], partner 0.025 µg/mL, one replicate
Conditions	fitness
first compound 0.03 µg/mL	0.872
first compound 0.06 µg/mL	0.79
first compound 0.12 µg/mL	0.742

S. pneumoniae D39V [1], first compound 0.12 µg/mL
Conditions	fitness
partner 0.05 µg/mL	0.608
partner 0.2 µg/mL	0.136

Conditions	Bliss interaction score
B. subtilis 168	0.0416
S. aureus DSM 20231	0.0229
S. aureus Newman	-0.0134
S. pneumoniae D39V [2]	0.14
